Each structure is given as a SMILES string. pIC50: −log10 of the molar value.

The target of this assay is T1, human mPGES-1 (Homo sapiens, UniProt O14684).
T1 construct: host or cells: microsomes
T1 sequence (O14684 1-152): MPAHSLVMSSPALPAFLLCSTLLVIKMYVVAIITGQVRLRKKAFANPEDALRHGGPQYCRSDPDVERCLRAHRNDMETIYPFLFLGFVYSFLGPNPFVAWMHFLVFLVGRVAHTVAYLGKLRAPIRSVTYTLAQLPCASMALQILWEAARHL
Nature of the assay: Microsomal prostaglandin E synthase biochemical assay. The settings on record: microsome preparation containing human mPGES-1; substrate PGH2 10.8 μM, GSH 2.5 mM, pH 6.8; PGE2 by HTRF; average of at least n=2. The method, then:
Compounds were tested as inhibitors of microsomal prostaglandin E synthase activity in microsomal prostaglandin E synthase assays and whole cell assays. These assays measure prostaglandin E2 (PGE2) synthesis which is taken as a measure of prostaglandin E synthase activity. Microsomal prostaglandin E synthase biochemical assays used microsomal prostaglandin E synthase-1 in microsomal preparations. The source of the microsomes can be for example interleukin-1β-stimulated human A549 cells (which express human mPGES-1) or Sf9 cells transfected with plasmids encoding human mPGES-1 cDNA.
A solution of test compound was added to a diluted microsome preparation containing is human mPGES-1 and pre-incubated for 15 minutes in potassium phosphate buffer pH 6.8 with cofactor glutathione (GSH). Corresponding solutions without test compound were used as positive controls, and corresponding solutions without test compound and without microsomes were used as negative controls. The enzymatic reaction was then started by addition of the substrate PGH2 in an organic solution (dry acetonitrile).
The reaction was stopped after one minute by adding an acidic solution (pH 1.9) of ferric chloride and citrate (final concentrations 7 mM and 47 mM respectively), by which the PGH2 was sequestered (the PGH2 is reduced to mainly 12-hydroxy heptadecatrineoic acid (12-HHT) which is not detected by the subsequent PGE2 detection step). The resulting solution was then pH neutralized by addition of potassium phosphate buffer, prior to diluting an aliquot of the resulting solution in a weak potassium phosphate buffer (50 mM, pH 6.8) containing 0.2% BSA (w/v). […] The PGE2 formed was quantified by use of a commercial HTRF based kit (catalogue #62PG2PEC or #62P2APEC from Cisbio International). 100% activity was defined as the PGE2 production in positive controls subtracted by the PGE2 production in the negative controls. IC50 values were then determined using standard procedures.
For orientation: pIC50 means −log10 of the IC50, conventionally taken in molar units. A low value points to a high IC50. `NS(=O)(=O)c1ccccc1S(=O)(=O)NC(=O)c1ccc(C#Cc2ccc(F)cc2)cc1` [Example 11, 4-((4-Fluorophenyl)ethynyl)-N-(2-sulfamoylphenylsulfonyl)benzamide] gave a pIC50 of 8.00. With `CCCC(C)C#Cc1ccc(C(=O)NS(=O)(=O)c2ccccc2S(N)(=O)=O)cc1CO` (stereo not shown) [Example 32, 3-(Hydroxymethyl)-4-(3-methylhex-1-ynyl)-N-(2-sulfamoylphenylsulfonyl)benzamide], the negative-log IC50 (pIC50) was 7.22. Against the preceding molecule, the pIC50 is 0.78 log units lower. Under `NS(=O)(=O)c1ccccc1S(=O)(=O)NC(=O)c1ccc(C#Cc2ccc(C(F)(F)F)cc2)c(CO)c1` [Example 39, 3-(Hydroxymethyl)-N-(2-sulfamoylphenylsulfonyl)-4-((4-(trifluoromethyl)phenyl)ethynyl)benzamide] stands 7.66.

Consider `CC(C)C#Cc1ncc(C(=O)NS(=O)(=O)c2ccccc2S(N)(=O)=O)cc1F` [Example 46, 5-Fluoro-6-(3-methylbut-1-ynyl)-N-(2-sulfamoylphenylsulfonyl)nicotinamide], for which the pIC50 was 6.70.

The molecule `NS(=O)(=O)c1ccccc1S(=O)(=O)NC(=O)c1cnc(C#Cc2ccc(C(F)(F)F)cc2)c(OCCC(F)(F)F)c1` [Example 48] showed a pIC50 of 8.00. In turn, `COc1cc(C(=O)NS(=O)(=O)c2ccccc2S(N)(=O)=O)ccc1C#CC(C)C` [Example 74, 3-Methoxy-4-(3-methylbut-1-ynyl)-N-(2-sulfamoylphenylsulfonyl)benzamide] gave a pIC50 of 6.72. Under `NS(=O)(=O)c1ccccc1S(=O)(=O)NC(=O)c1ccc(C#CC2CCCC2)c(OCCOCC(F)(F)F)c1` [Example 67, 4-(Cyclopentylethynyl)-N-(2-sulfamoylphenylsulfonyl)-3-(2-(2,2,2-trifluoroethoxy)ethoxy)benzamide] stands 8.02; under `NS(=O)(=O)c1ccccc1S(=O)(=O)NC(=O)c1ccc(OCc2ccccc2)c(OCCC(F)(F)F)c1` [Example 30, 4-(Benzyloxy)-N-(2-sulfamoylphenylsulfonyl)-3-(3,3,3-trifluoropropoxy)benzamide], 6.89. The value for `CC(C)C#Cc1ccc(C(=O)NS(=O)(=O)c2ccccc2S(N)(=O)=O)cc1OC(C)C` [Example 26, 3-Isopropoxy-4-(3-methylbut-1-ynyl)-N-(2-sulfamoylphenylsulfonyl)benzamide] was 7.07. Under `NS(=O)(=O)c1ccccc1S(=O)(=O)NC(=O)c1ccc(C#CC(O)(C2CC2)C2CC2)cc1` [Example 31, 4-(3,3-Dicyclopropyl-3-hydroxyprop-1-ynyl)-N-(2-sulfamoylphenylsulfonyl)benzamide] stands 6.66; under `COc1cc(C(=O)NS(=O)(=O)c2ccccc2S(N)(=O)=O)ccc1COc1ccc(C)cc1` [Example 2, 3-Methoxy-N-(2-sulfamoylphenylsulfonyl)-4-(p-tolyloxymethyl)benzamide], 7.51; under `CC(C)C#Cc1ccc(C(=O)NS(=O)(=O)c2ccccc2S(N)(=O)=O)cc1OCC(F)(F)C(F)F` [Example 58, 4-(3-Methylbut-1-ynyl)-N-(2-sulfamoylphenylsulfonyl)-3-(2,2,3,3-tetrafluoropropoxy)benzamide], 7.62. In turn, `NS(=O)(=O)c1ccccc1S(=O)(=O)NC(=O)c1ccc(C#CC2CCCC2)c(OCCC(F)(F)F)c1` [Example 66, 4-(Cyclopentylethynyl)-N-(2-sulfamoylphenylsulfonyl)-3-(3,3,3-trifluoropropoxy)benzamide] had a pIC50 of 8.03.

`NS(=O)(=O)c1ccccc1S(=O)(=O)NC(=O)c1ccc(CN2CC(F)(F)C(F)(F)C2)cc1` [Example 24, N-(2-Sulfamoylphenylsulfonyl)-4-((3,3,4,4-tetrafluoropyrrolidin-1-yl)methyl)benzamide]: the pIC50 is 5.54. The value for `NS(=O)(=O)c1ccccc1S(=O)(=O)NC(=O)c1ccc(OCc2ccccc2)c(OCC2CC2)c1` [Example 1, 4-(Benzyloxy)-3-(cyclopropylmethoxy)-N-(2-sulfamoylphenylsulfonyl)benzamide] was 6.55. Take `CC(C)C#Cc1ccc(C(=O)NS(=O)(=O)c2ccccc2S(N)(=O)=O)cc1OCCOCC(F)(F)F` [Example 51, 4-(3-Methylbut-1-ynyl)-N-(2-sulfamoylphenylsulfonyl)-3-(2-(2,2,2-trifluoroethoxy)ethoxy)benzamide]: the pIC50 was 7.59. Under `Cc1ccc(C#Cc2ccc(C(=O)NS(=O)(=O)c3ccccc3S(N)(=O)=O)cc2OCC(F)F)cc1` [Example 4, 3-(2,2-Difluoroethoxy)-N-(2-sulfamoylphenylsulfonyl)-4-(p-tolylethynyl)benzamide] stands 8.30. For `COc1cc(C(=O)NS(=O)(=O)c2ccccc2S(N)(=O)=O)ccc1C#Cc1cccc(C)c1` [Example 18, 3-Methoxy-N-(2-sulfamoylphenylsulfonyl)-4-(m-tolylethynyl)benzamide], the pIC50 was 7.92. As to `NS(=O)(=O)c1ccccc1S(=O)(=O)NC(=O)c1ccc(C#Cc2ccccc2)c(OCCC(F)(F)F)c1` [Example 65, 4-(Phenylethynyl)-N-(2-sulfamoylphenylsulfonyl)-3-(3,3,3-trifluoropropoxy)benzamide], the pIC50 was 8.21. Take `NS(=O)(=O)c1ccccc1S(=O)(=O)NC(=O)c1ccc(C#CC2CCCC2)c(OCCC(F)F)c1` [Example 68, 4-(Cyclopentylethynyl)-3-(3,3-difluoropropoxy)-N-(2-sulfamoylphenylsulfonyl)benzamide]: the pIC50 is 7.92. The value for `COc1cc(C(=O)NS(=O)(=O)c2ccccc2S(N)(=O)=O)ccc1C#Cc1cccc(F)c1` [Example 20, 4-((3-Fluorophenyl)ethynyl)-3-methoxy-N-(2-sulfamoylphenylsulfonyl)benzamide] was 7.92.

On to `NS(=O)(=O)c1ccccc1S(=O)(=O)NC(=O)c1ccc(C#CC2CCCC2)c(OCCCC(F)(F)F)c1` [Example 69, 4-(Cyclopentylethynyl)-N-(2-sulfamoylphenylsulfonyl)-3-(4,4,4-trifluorobutoxy)benzamide], for which the pIC50 was 7.96. This pIC50 and that of the molecule before are within 0.2 log units of each other.

As to `NS(=O)(=O)c1ccccc1S(=O)(=O)NC(=O)c1ccc(-c2cc3ccccc3o2)c(F)c1` [Example 57, 4-(Benzofuran-2-yl)-3-fluoro-N-(2-sulfamoylphenylsulfonyl)benzamide], the pIC50 was 8.07. Under `CC(C)C#Cc1ncc(C(=O)NS(=O)(=O)c2ccccc2S(N)(=O)=O)cc1Cl` [Example 44, 5-Chloro-6-(3-methylbut-1-ynyl)-N-(2-sulfamoylphenylsulfonyl)nicotinamide] stands 7.23. Under `NS(=O)(=O)c1ccccc1S(=O)(=O)NC(=O)c1ccc(-c2cc3ccccc3o2)c(OCC2CC2)c1` [Example 21, 4-(Benzofuran-2-yl)-3-(cyclopropylmethoxy)-N-(2-sulfamoylphenylsulfonyl)benzamide] stands 8.30; under `CC(C)(C)C#Cc1ccc(C(=O)NS(=O)(=O)c2ccc(O)cc2S(N)(=O)=O)cc1` [Example 77, 4-Hydroxy-benzene-1,2-disulfonic acid 2-amide 1-[4-(3,3-dimethyl-but-1-ynyl)-benzoylamide]], 7.21; under `NS(=O)(=O)c1ccccc1S(=O)(=O)NC(=O)c1ccc(C#Cc2ccc(C(F)(F)F)cc2)nc1` [Example 43], 8.19. For `CC(C)(C)C#Cc1ccc(C(=O)NS(=O)(=O)c2ccccc2S(N)(=O)=O)cc1OCCC(F)(F)F` [Example 60, 4-(3,3-Dimethylbut-1-ynyl)-N-(2-sulfamoylphenylsulfonyl)-3-(3,3,3-trifluoropropoxy)benzamide], the pIC50 is 7.52. Under `CC(C)C#Cc1ccc(C(=O)NS(=O)(=O)c2ccccc2S(N)(=O)=O)cc1OCC(C)C` [Example 28, 3-Isobutoxy-4-(3-methylbut-1-ynyl)-N-(2-sulfamoylphenylsulfonyl)benzamide] stands 7.70. The value for `NS(=O)(=O)c1ccccc1S(=O)(=O)NC(=O)c1ccc(C#CC2CCCC2)c(OCC(F)F)c1` [Example 5, 4-(Cyclopentylethynyl)-3-(2,2-difluoroethoxy)-N-(2-sulfamoylphenylsulfonyl)benzamide] was 7.85; that for `Cc1cc(C(=O)NS(=O)(=O)c2ccccc2S(N)(=O)=O)ccc1C#CC(C)C` [Example 50, 3-Methyl-4-(3-methylbut-1-ynyl)-N-(2-sulfamoylphenylsulfonyl)benzamide] was 7.77.

(Values after patent US20100292279A1, “Bis-(Sulfonylamino) Derivatives in Therapy” (ASTRAZENECA AB, priority 2009, published 2010).)
